In patent US8735423B2, “Bicyclic compounds as α4β2 nicotinic acetylcholine receptor ligands” (priority 2009, dated 2014):

How the values were obtained:
[1] = biological target: Human or Rat Nicotinic Acetylcholine α4β2 receptor (UniProt P09483+P12390); experiment: Binding assay for Human or Rat Nicotinic Acetylcholine α4β2 receptor ([3H] Cytisine); details: [3H] Cytisine 2.5 nM; rat brain frontal cortex or recombinant human cDNA expressed in CHO cells
Experimental: Binding assay for Human or Rat Nicotinic Acetylcholine α4β2 receptor
Compounds can be evaluated according to the following procedures.
Materials and Methods: • Receptor source: Rat brain frontal cortex or recombinant human cDNA expressed in CHO cells • Radioligand: [^3H] Cytisine 15-40 Ci/mmol • Final ligand concentration—[2.5 nM] • Non-specific determinant: Epibatidine-[0.1 μM] • Reference compound: Epibatidine • Positive control: Epibatidine Incubation Conditions:
Increasing concentrations of test compounds or standard were incubated with membrane receptors and radioligand in 120 mM NaCl, 2.5 mM KCl, 1 mM CaCl2, 1 mM MgCl2 and 50 mM TRIS-HCl (pH 7.4) for 60 minutes at room temperature. The reaction was terminated by rapid vacuum filtration onto the glass fiber filters. Radioactivity trapped onto the filters was determined and compared to the control values in order to ascertain any interactions of the test compound(s) with either cloned human or rat receptor binding site.
Literature Reference: Bunnelle W. H., Daanen J. F., Ryther K. B., Schrimpf M. R., Dart M. J., Gelain A., Meyer M. D., Frost J. M., Anderson D. J., Buckley M., Curzon P., Cao Y-J., Puttfarcken P., Searle X., Ji J., Putman C. B., Surowy C., Toma L. and Barlocco D. Structure-Activity Studies and Analgesic Efficacy of N-(3-Pyridinyl)-Bridged Bicyclic Diamines, Exceptionally Potent Agonists at Nicotinic Acetylcholine Receptors. J. Med. Chem. 2007, 50, […].

[2] = Rodent Pharmacokinetic Study; details: Wistar, in vivo, Wister rat male
Experimental: Rodent Pharmacokinetic Study
Male wistar rats (230-280 grams) obtained from NIN (National Institute of Nutrition, Hyderabad, India) were used as an experimental animal. Three to five animals were housed in each cage. Animals were kept fasted over night and maintained on a 12 hours light/dark cycle. […]
At each time point blood was collected by jugular vein. Plasma was stored frozen at −20° C. until analysis. The concentrations of the NCE compound in plasma were determined using LC-MS/MS method. Schedule time points: Pre dose 0.25, 0.5, 1, 1.5, 2, 3, 4, 6, 8, 10, 12 and 24 hours after dosing (n=3). The NCE compounds were quantified in plasma by validated LC-MS/MS method using solid phase extraction technique. NCE compounds were quantified in the calibration range of 1-2000 ng/mL in plasma. Study samples were analyzed using calibration samples in the batch and quality control samples spread across the batch. Pharmacokinetic parameters Cmax, Tmax, AUCs, T112 and Bioavailability were calculated by non-compartmental model using software WinNonlin version 5.0.1.

[3] = test system: Male Wister rats; experiment: Object Recognition Task Model; type: in vivo; details: rat; for Exploration time mean ± S.E.M, Familiar object / Exploration time mean ± S.E.M, Novel object: choice trial T2
Experimental: Object Recognition Task Model
The cognition-enhancing properties of compounds of this invention were estimated using a model of animal cognition: the object recognition task model.
Male Wister rats (230-280 grams) obtained from N. I. N. (National Institute of Nutrition, Hyderabad, India) was used as experimental animals. Four animals were housed in each cage. Animals were kept on 20% food deprivation before one day and given water ad libitum throughout the experiment and maintained on a 12 hours light/dark cycle. Also the rats were habituated to individual arenas for 1 hour in the absence of any objects.
One group of 12 rats received vehicle (1 mL/Kg) orally and another set of animals received compound of the formula (I) either orally or i.p., before one hour of the familiar (T1) and choice trial (T2).
The experiment was carried out in a 50×50×50 cm open field made up of acrylic. In the familiarization phase, (T1), the rats were placed individually in the open field for 3 minutes, in which two identical objects (plastic bottles, 12.5 cm height×5.5 cm diameter) covered in yellow masking tape alone (a1 and a2) were positioned in two adjacent corners, 10 cm. from the walls. After 24 hours of the (T1) trial for long-term memory test, the same rats were placed in the same arena as they were placed in T1 trial. Choice phase (T2) rats were allowed to explore the open field for 3 minutes in presence of one familiar object (a3) and one novel object (b) (Amber color glass bottle, 12 cm high and 5 cm in diameter). Familiar objects presented similar textures, colors and sizes. During the T1 and T2 trial, explorations of each object (defined as sniffing, licking, chewing or having moving vibrissae whilst directing the nose towards the object at a distance of less than 1 cm) were recorded separately by stopwatch. Sitting on an object was not regarded as exploratory activity, however, it was rarely observed.
T1 is the total time spent exploring the familiar objects (a1+a2).
T2 is the total time spent exploring the familiar object and novel object (a3+b).
The object recognition test was performed as described by Ennaceur, A., Delacour, J., 1988, A new one-trial test for neurobiological studies of memory in rats—Behavioural data, Behay. Brain Res., 31, 47-59.
Some representative compounds have shown positive effects indicating the increased novel object recognition viz; increased exploration time with novel object and higher discrimination index.

[4] = test system: Male Wister rats; experiment: Reversal of Formalin Induced Nociception; type: in vivo; details: rat, p.o., formalin 5% v/v subplantar
Experimental: Reversal of Formalin Induced Nociception
The anti-nociceptive properties of compounds of this invention were evaluated using a model of pain: the Formalin Induced Nociception model. Male Wister rats (230-280 grams) obtained from N. I. N. (National Institute of Nutrition, Hyderabad, India) was used as experimental animals.
Rats were habituated for 20 minutes in the arena before the experiment was started. Duration of licks, bites and flinches were noted from 0-10 minutes and 20-35 minutes after administration of formalin, subplantar into the right hind paw at concentrations of 5% v/v. 50 μL of water for injection was injected into the right hind paw of the rats of the sham group. Compounds of this invention were administered orally prior to formalin administration.

Cl.Cl.Clc1cncc(OCC2CC3CC3N2)c1 (stereo not shown) [Example 7, 3-(5-Chloropyridin-3-yloxymethyl)-2-azabicyclo[3.1.0]hexane dihydrochloride]
Ki [1]: 0.19 nM | AUC(0-t) ([2]; iv, I.V, 5 mg/kg): 2390 ± 196 ng·h/mL | Cmax ([2]; iv, I.V, 5 mg/kg): 2340 ± 388 ng/mL | Tmax ([2]; iv, I.V, 5 mg/kg): 4.8 min | half-life ([2]; iv, I.V, 5 mg/kg): 51.6 ± 1.8 min | bioavailability ([2]; po, P.O 5 mg/kg vs I.V 5 mg/kg): 50 ± 13% | AUC(0-t) ([2]; po, P.O, 5 mg/kg): 1190 ± 201 ng·h/mL | Cmax ([2]; po, P.O, 5 mg/kg): 949 ± 200 ng/mL | Tmax ([2]; po, P.O, 5 mg/kg): 15 min | half-life ([2]; po, P.O, 5 mg/kg): 64.2 ± 2.4 min | Inference ([3]; 1 mg/kg p.o.): Active | Exploration time mean ± S.E.M, Familiar object ([3]; 1 mg/kg p.o.): 6.81 ± 1.49 s | Exploration time mean ± S.E.M, Novel object ([3]; 1 mg/kg p.o.): 16.70 ± 3.19 s | Dose (reversal of formalin induced nociception) [4]: ≦30 mg/kg, p.o.

Cl.c1cncc(OCC2CC3CC3N2)c1 (stereo not shown) [Example 1, 3-(Pyridin-3-yloxymethyl)-2-azabicyclo[3.1.0]hexane hydrochloride]
Ki [1]: 7.7 nM | AUC(0-t) ([2]; iv, I.V, 5 mg/kg): 4050 ± 679 ng·h/mL | Cmax ([2]; iv, I.V, 5 mg/kg): 3180 ± 38 ng/mL | Tmax ([2]; iv, I.V, 5 mg/kg): 4.8 min | half-life ([2]; iv, I.V, 5 mg/kg): 116 ± 37.2 min | bioavailability ([2]; po, P.O 15 mg/kg vs I.V 5 mg/kg): 92 ± 16% | AUC(0-t) ([2]; po, P.O, 15 mg/kg): 10900 ± 646 ng·h/mL | Cmax ([2]; po, P.O, 15 mg/kg): 7610 ± 1660 ng/mL | Tmax ([2]; po, P.O, 15 mg/kg): 15 min | half-life ([2]; po, P.O, 15 mg/kg): 251 ± 91.8 min | Inference ([3]; 0.1 mg/kg p.o.): Active | Exploration time mean ± S.E.M, Familiar object ([3]; 0.1 mg/kg p.o.): 7.75 ± 0.84 s | Exploration time mean ± S.E.M, Novel object ([3]; 0.1 mg/kg p.o.): 12.65 ± 1.96 s | Dose (reversal of formalin induced nociception) [4]: ≦10 mg/kg, p.o.
